What all share (assay): NCI anticancer screen, dose series, 48 h
For test [1], the system named is SR.
Test [2] has as its system HCC 2998.
In test [3] the test system is OVCAR-3.
Test [4] has as its system SNB-75.
The test system of test [5] is MDA-N.
Test [6] deals with TK-10.
Test [7] concerns K562.
Test [8] relates to HCT-15.
For test [9], the system named is LOX IMVI.
Test [10] relates to A549.
Test [11] concerns CCRF-CEM.
Test [12] relates to SNB-19.
Test [13] relates to SF-268.
Test [14] has as its system NCI-H23.
Test [15] deals with SK-MEL-2.
Test [16] has as its system DU-145.
In test [17] the test system is NCI-H460.
The test system of test [18] is M14.
Test [19] has as its system NCI-H522.
Test [20] has as its system A498.

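The compound was tested at five concentrations on cells cultured in 96-well plates, with a 48-hour exposure period. GI50: concentration for 50% inhibition of growth.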 The source made the active and inactive calls. Cut-off read from the data, not from the text of the source: active = GI50 up to about 1.1 µM and inactive = higher.

Regarding `Cn1c2ccccc2c(=O)c2ccc(Cl)cc21`, the GI50 in [1] is > 10 µM (inactive); in test [2] it was > 10 µM (inactive); in [3], > 10 µM (inactive); in test [4], 8.97 µM (inactive); in test [5], > 10 µM (inactive); in test [6] it was 7.5 µM (inactive). Moreover, the GI50 is > 10 µM (inactive) in [7]; more than 10 µM in test [8]; > 10 µM (inactive) in test [9]; 6.01 µM (inactive) in test [10]; > 10 µM (inactive) in test [11]; 0.0676 µM (active) in test [12]. In addition, the GI50 in test [13], in [14] and in [15] was > 10 µM (inactive) throughout.
With `COc1cc(C2SCC(=O)N2c2ccc(NC(=O)c3ccc(N4C(=O)CSC4c4cc(OC)c(OC)c(OC)c4)cc3)cc2)cc(OC)c1OC` (stereo not drawn), the GI50 in test [2] was > 100 µM (inactive); in test [3], 37.1 µM (inactive); in test [4], 22.2 µM (inactive); in test [5], 23.1 µM (inactive); in test [6], > 100 µM (inactive); in [16] it was > 100 µM (inactive). The GI50 in test [7] is 37.9 µM (inactive); in test [8], 38.5 µM; in test [17], > 100 µM (inactive); in [18], 73.1 µM (inactive); in test [9] it was 31.8 µM (inactive); in test [10], > 100 µM (inactive). Besides, the GI50 in test [11] is 45.5 µM (inactive); in [12], 84.1 µM (inactive); in test [13], 81.3 µM (inactive); in [14], 49.4 µM (inactive); in test [19], 40.2 µM (inactive); in test [15], 91.6 µM (inactive).
In the case of `O=C(OCc1ccccc1CN1CCOCC1)c1ccc(Br)cc1`, the GI50 was 46.5 µM (inactive) in test [2]; 31.8 µM (inactive) in [3]; > 100 µM (inactive) in test [4]; > 100 µM (inactive) in test [6]; > 100 µM (inactive) in [16]; 0.0209 µM (active) in [7]. The GI50 in [8] is 57.1 µM; in [17] it was > 100 µM (inactive); in test [18], 52.8 µM (inactive); in test [9], 55 µM (inactive); in test [10], 45.6 µM (inactive); in test [12], > 100 µM (inactive). Further, the GI50 in [13] is > 100 µM (inactive); in [20] it was > 100 µM (inactive); in [14] it was 39.4 µM (inactive); in test [19], 28.7 µM (inactive); in test [15] it was 36 µM (inactive).
Regarding `Ic1ncnc2c1ncn2C1CCCO1` (stereo not drawn), the GI50 in test [1] was > 100 µM (inactive); in test [2] it was > 100 µM (inactive); in [3], > 100 µM (inactive); in test [4], 35.8 µM (inactive); in test [6], > 100 µM (inactive); in test [7], > 100 µM (inactive). Moreover, the GI50 was more than 100 µM in [8]; > 100 µM (inactive) in test [17]; > 100 µM (inactive) in test [18]; > 100 µM (inactive) in [9]; > 100 µM (inactive) in test [10]; > 100 µM (inactive) in test [11]. Besides, the GI50 in test [12], in test [13], in [20], in test [14], in [19] and in test [15] was > 100 µM (inactive) in each case.
`S=C(Nc1cc(Cl)c(Cl)cc1Cl)SCc1ccccc1`: the GI50 in [1] is 0.0129 µM (active); in test [3] it was 21.8 µM (inactive); in test [4], 39.3 µM (inactive); in test [6], 24.7 µM (inactive); in test [16], 39.4 µM (inactive); in test [7], 18.5 µM (inactive). Besides, the GI50 in [8] is 18.1 µM; in [17], 45.8 µM (inactive); in test [18], 34.9 µM (inactive); in test [10], 30 µM (inactive); in [12], 28.6 µM (inactive); in [13], 38.1 µM (inactive). Besides, the GI50 is 32.9 µM (inactive) in test [20], 20.1 µM (inactive) in [14], 24.3 µM (inactive) in test [19] and > 100 µM (inactive) in test [15].
With `Nc1ccc(-c2cssc2=S)cc1`, the GI50 in test [1] is 2.64 µM (inactive); in test [2], 29.2 µM (inactive); in test [5], 30.4 µM (inactive); in test [6] it was 40.6 µM (inactive); in test [7] it was 3.21 µM (inactive); in test [8], 45.5 µM. For the same compound, the GI50 is 33.9 µM (inactive) in [17]; 75.7 µM (inactive) in test [18]; 41.1 µM (inactive) in [9]; 50.6 µM (inactive) in test [10]; > 100 µM (inactive) in [12]; 42.7 µM (inactive) in test [13]. Besides, the GI50 is 26.9 µM (inactive) in test [19] and 27.1 µM (inactive) in test [15].
In the case of `O=C1CCC2(c3ccc(Cl)cc3)Nc3ccncc3N12` (stereo not drawn), the GI50 in [1] is > 10 µM (inactive); in test [3] it was > 10 µM (inactive); in test [4], > 10 µM (inactive); in test [5], > 10 µM (inactive); in test [6], > 10 µM (inactive); in [16], 4.4 µM (inactive). The GI50 in [7] was > 10 µM (inactive); in test [8], more than 10 µM; in [17], > 10 µM (inactive); in test [18], > 10 µM (inactive); in [9], > 10 µM (inactive); in test [10] it was > 10 µM (inactive). Besides, the GI50 in test [11], in test [12], in [13], in test [14], in test [19] and in [15] was > 10 µM (inactive) each time.
Turning to `O=C(Cn1c(=O)oc2ccc(C(=O)c3cccc(Cl)c3)cc21)c1ccccc1`, the GI50 in test [1] is 36.3 µM (inactive); in test [2], 20.1 µM (inactive); in [3], > 100 µM (inactive); in test [4] it was 25.1 µM (inactive); in [6], > 100 µM (inactive); in test [16], > 100 µM (inactive). Further, the GI50 in [7] was 57.8 µM (inactive); in test [8] it was 41.2 µM; in test [17], 41.7 µM (inactive); in test [18], > 100 µM (inactive); in test [9], > 100 µM (inactive); in test [10] it was 27.2 µM (inactive). The GI50 is > 100 µM (inactive) in [11]; > 10 µM (inactive) in test [12]; > 100 µM (inactive) in test [13]; 33 µM (inactive) in [20]; > 100 µM (inactive) in test [14]; > 100 µM (inactive) in test [19]. In addition, the GI50 in test [15] is 67.3 µM (inactive).
For the compound `O=C(NI1OC(=O)c2ccccc21)c1ccc(Cl)cc1`, the GI50 is 76.2 µM (inactive) in test [2]; > 100 µM (inactive) in test [3]; > 100 µM (inactive) in [4]; > 100 µM (inactive) in test [6]; > 100 µM (inactive) in test [16]; 28.4 µM (inactive) in test [7]. Besides, the GI50 was 96.6 µM in test [8]; > 100 µM (inactive) in test [17]; > 100 µM (inactive) in test [18]; > 100 µM (inactive) in test [9]; > 100 µM (inactive) in test [10]; 85.5 µM (inactive) in [11]. Moreover, the GI50 in test [13] is > 100 µM (inactive); in test [20] it was > 100 µM (inactive); in test [14], > 100 µM (inactive); in test [19], 14.1 µM (inactive); in test [15], > 100 µM (inactive).
For `COc1ccc(N2C(=O)/C(=C/c3ccc(N(CCC#N)CCC#N)cc3)N=C2c2ccccc2)c(OC)c1`, the GI50 is 22.4 µM (inactive) in test [1]; > 100 µM (inactive) in test [2]; 98.4 µM (inactive) in [3]; 89.5 µM (inactive) in [4]; > 100 µM (inactive) in test [5]; > 100 µM (inactive) in [6]. In addition, the GI50 in test [16] was > 100 µM (inactive); in test [7] it was 18.1 µM (inactive); in [8], 40.2 µM; in test [17], > 100 µM (inactive); in test [18] it was > 100 µM (inactive); in [11] it was 21.9 µM (inactive). The GI50 in test [12] was > 100 µM (inactive); in [13], > 100 µM (inactive); in test [14], 60.3 µM (inactive); in test [19], 22 µM (inactive).
Turning to `CN(C)c1ccc(/C=C2\N=C(c3ccccc3)N(c3nc4ccc(Sc5ccccc5)cc4[nH]3)C2=O)cc1`, the GI50 in test [2] is 17.4 µM (inactive); in [3], 27.4 µM (inactive); in [4], 53.2 µM (inactive); in test [6], 23.5 µM (inactive); in test [16] it was 77.4 µM (inactive); in test [7], 26.4 µM (inactive). Moreover, the GI50 in test [8] was 36.5 µM; in test [17], 30 µM (inactive); in [18], 43.6 µM (inactive); in [9], 45.2 µM (inactive); in [10] it was 41.5 µM (inactive); in [11], 16.7 µM (inactive). For the same compound, the GI50 in test [12] is 49.1 µM (inactive); in [13], 43.8 µM (inactive); in test [20], 37.6 µM (inactive); in [14] it was 47.1 µM (inactive); in test [19], 29.2 µM (inactive); in test [15], 20.8 µM (inactive).
Consider `N#Cc1nc(C(CO)N(Cc2ccccc2)C(=O)O)oc1N` (stereo not drawn), for which the GI50 in test [1], in test [2], in [3], in [4], in test [6] and in test [16] was > 100 µM (inactive) each time. The GI50 is > 100 µM (inactive) in [7]; more than 100 µM in test [8]; > 100 µM (inactive) in test [17]; > 100 µM (inactive) in [18]; > 100 µM (inactive) in test [9]; > 100 µM (inactive) in test [10]. Besides, the GI50 in [13] is > 100 µM (inactive); in test [20], > 100 µM (inactive); in test [14], > 100 µM (inactive); in [19], 12.4 µM (inactive); in test [15], > 100 µM (inactive).

Source of the values: ChEMBL document CHEMBL1201862, “PubChem BioAssay data set” (2004).
